Measured values reported in US20230265055A1, “STAT INIHIBITORY COMPOUNDS AND COMPOSITIONS” (JANPIX LIMITED, priority 2020, published 2023).

Columns and labels:
[1] = tested on: normal human fibroblast (NHF) cells; test: NHF Cell Cytotoxicity Assay; assay type: cell-based; conditions: 72 hours, CellTiter-Blue, read-out: IC50—Pooled NHF
Method: Cell viability was examined a following treatment at various concentrations of inhibitor (0.097656-50 μM) using a cell Titer-Blue cell viability assay. 1×10^4 normal human fibroblast cells per well were plated in 96-well assay plates in culture medium. All cells were grown in DMEM, IMDM and RPMI-1640 were supplemented with 10% FBS. After 24 hours, test compounds and vehicle controls were added to appropriate wells so the final volume was 100 μl in each well. The cells were cultured for the desired test exposure period (72 hours) at 37° C. and 5% CO2. The assay plates were removed from 37° C. incubator and 20 μL/well of CellTiter-Blue® Reagent was added. […] For each sample well, value was normalized between the DMSO control and the highest concentration in case of plateau and converted into a percentage. In the absence of plateau, minimum lecture is obtained from a different sample within the same experiment. For each concentration, the four replicates are averaged, and standard deviation calculated. Data was fitted to a log(inhibitor) vs response curve with variable slope model using Microsoft Excel, obtaining IC50 and Hill slope variables.
A person skilled in the art would appreciate that a higher IC50 value in this NHF assay can indicate lower off-target effects.

[2] = tested on: MV4-11 cells; test: MV4-11 Cell Cytotoxicity Assay; assay type: cell-based; conditions: Homo sapiens, 72 h incubation, CellTiter-Blue, read-out: IC50-MV-4-11 (NS)
Method: MV4-11 cells were grown in Iscove's Modified Dulbecco's Medium (IMDM) supplemented with 10% fetal bovine serum (FBS). 10,000 cells were plated per well in 96-well flat-bottom sterile culture plates with low-evaporation lids. After 24 h, inhibitors and a vehicle control (0.5% DMSO) were added and the cells were incubated for 72 h at 37° C. in 5% CO2. Inhibitors were examined in triplicate at a maximal concentration of 50 μM, followed by 1:2 dilutions in subsequent wells (25, 12.5, 6.25, 3.13, 1.56, 0.78, 0.39, 0.20 and 0.098 μM). After 72 h, the wells were treated with CellTiter-Blue® (20 μL/well), and the plates were incubated using standard cell culture conditions for 1 hour. Fluorescence was measured at 560/590 nm.

Compound | IC50 [1] [nM] | IC50 [2] [nM]
CCOc1cc(C(=O)O)ccc1N(Cc1cc(C2CC2)cc(C2CC2)c1)C(=O)CN(Cc1ccccc1C(F)(F)F)S(=O)(=O)c1c(Br)cc(F)c(F)c1F [Compound 21, 4-[[2-[(6-bromo-2,3,4-trifluoro-phenyl)sulfonyl-[[2-(trifluoromethyl)phenyl]methyl]amino]acetyl]-[(3,5-dicyclopropylphenyl)methyl]amino]-3-ethoxy-benzoic acid] | ≥ 24000 | 1200 to 6000
CCOc1cc(C(=O)O)ccc1N(Cc1cc(C2CC2)cc(C2CC2)c1)C(=O)CN(Cc1ccccc1F)S(=O)(=O)c1cc(F)c(F)c(F)c1F [Compound 11, 4-[(3,5-dicyclopropylphenyl)methyl-[2-[(2-fluorophenyl)methyl-(2,3,4,5-tetrafluorophenyl)sulfonyl-amino]acetyl]amino]-3-ethoxy-benzoic acid] |  | 1200 to 6000
CCOc1cc(C(=O)O)ccc1N(Cc1cc(C2CC2)cc(C2CC2)c1)C(=O)CN(Cc1ccc(F)cc1Cl)S(=O)(=O)c1c(F)cc(F)c(F)c1F [Compound 15, 4-[[2-[(2-chloro-4-fluoro-phenyl)methyl-(2,3,4,6-tetrafluorophenyl)sulfonyl-amino]acetyl]-[(3,5-dicyclopropylphenyl)methyl]amino]-3-ethoxy-benzoic acid] |  | 1200 to 6000
CCOc1cc(C(=O)O)ccc1N(Cc1cccc(OC(C)C)c1)C(=O)CN(Cc1ccccc1C#N)S(=O)(=O)c1cc(F)c(F)c(F)c1F [Compound 33, 4-[[2-[(2-cyanophenyl)methyl-(2,3,4,5-tetrafluorophenyl)sulfonyl-amino]acetyl]-[(3-isopropoxyphenyl)methyl]amino]-3-ethoxy-benzoic acid] |  | 1200 to 6000
CCOc1cc(C(=O)O)ccc1N(Cc1cc(OC(C)C)cc(C2CC2)c1)C(=O)CN(Cc1ccccc1C#N)S(=O)(=O)c1cc(F)c(F)c(F)c1F [Compound 32, 4-[[2-[(2-cyanophenyl)methyl-(2,3,4,5-tetrafluorophenyl)sulfonyl-amino]acetyl]-[(3-cyclopropyl-5-isopropoxy-phenyl)methyl]amino]-3-ethoxy-benzoic acid] |  | 1200 to 6000
CCOc1cc(C(=O)O)ccc1N(Cc1cccc(N2CCCC2)c1)C(=O)CN(Cc1ccccc1C#N)S(=O)(=O)c1cc(F)c(F)c(F)c1F [Compound 26, 4-[[2-[(2-cyanophenyl)methyl-(2,3,4,5-tetrafluorophenyl)sulfonyl-amino]acetyl]-[(3-pyrrolidin-1-ylphenyl)methyl]amino]-3-ethoxy-benzoic acid] |  | 400 to 1200
O=C(O)c1ccc(N(Cc2cc(C3CC3)cc(C3CC3)c2)C(=O)CN(Cc2ccccc2Cl)S(=O)(=O)c2c(F)c(F)c(F)c(F)c2Cl)c(O)c1 [Compound 73, 4-(2-((2-chloro-N-(2-chlorobenzyl)-3,4,5,6-tetrafluorophenyl)sulfonamido)-N-(3,5-dicyclopropylbenzyl)acetamido)-3-hydroxybenzoic acid] | ≥ 24000 | 400 to 1200
CCOc1cc(C(=O)O)ccc1N(Cc1cc(C2CC2)cc(C2CC2)c1)C(=O)CN(Cc1ccccc1C(F)(F)F)S(=O)(=O)c1c(F)cc(F)c(F)c1F [Compound 14, 4-[(3,5-dicyclopropylphenyl)methyl-[2-[(2,3,4,6-tetrafluorophenyl)sulfonyl-[[2-(trifluoromethyl)phenyl]methyl]amino]acetyl]amino]-3-ethoxy-benzoic acid] |  | 1200 to 6000
CCOc1cc(C(=O)O)ccc1N(Cc1cc(C2CC2)cc(N2CCCC2)c1)C(=O)CN(Cc1ccccc1C#N)S(=O)(=O)c1c(F)cc(F)c(F)c1F [Compound 23, 4-[[2-[(2-cyanophenyl)methyl-(2,3,4,6-tetrafluorophenyl)sulfonyl-amino]acetyl]-[(3-cyclopropyl-5-pyrrolidin-1-yl-phenyl)methyl]amino]-3-ethoxy-benzoic acid] |  | 1200 to 6000
CCOc1cc(C(=O)O)c(F)cc1N(Cc1cc(C2CC2)cc(C2CC2)c1)C(=O)CN(Cc1ccccc1C#N)S(=O)(=O)c1c(F)cc(F)c(F)c1F [Compound 19, 4-[[2-[(2-cyanophenyl)methyl-(2,3,4,6-tetrafluorophenyl)sulfonyl-amino]acetyl]-[(3,5-dicyclopropylphenyl)methyl]amino]-5-ethoxy-2-fluoro-benzoic acid] |  | 1200 to 6000
CCOc1cc(C(=O)O)ccc1N(Cc1cc(C2CC2)cc(C2CC2)c1)C(=O)CN(Cc1cccc(F)c1F)S(=O)(=O)c1cc(F)c(F)c(F)c1F [Compound 9, 4-[(3,5-dicyclopropylphenyl)methyl-[2-[(2,3-difluorophenyl)methyl-(2,3,4,5-tetrafluorophenyl)sulfonyl-amino]acetyl]amino]-3-ethoxy-benzoic acid] |  | 1200 to 6000
CCOc1cc(C(=O)O)ccc1N(Cc1cc(C2CC2)cc(C(C)(C)C)c1)C(=O)CN(Cc1ccccc1C#N)S(=O)(=O)c1c(F)cc(F)c(F)c1F [Compound 25, 4-[(3-tert-butyl-5-cyclopropyl-phenyl)methyl-[2-[(2-cyanophenyl)methyl-(2,3,4,6-tetrafluorophenyl)sulfonyl-amino]acetyl]amino]-3-ethoxy-benzoic acid] |  | 1200 to 6000
CCOc1cc(C(=O)O)ccc1NC(=O)CN(Cc1ccccc1C#N)S(=O)(=O)c1cc(F)c(F)c(F)c1F [Compound 48, 4-(2-((N-(2-cyanobenzyl)-2,3,4,5-tetrafluorophenyl)sulfonamido)acetamido)-3-ethoxy benzoic acid] |  | 1200 to 6000
CCOc1cc(C(=O)O)ccc1N(Cc1cc(C2CC2)cc(C2CC2)c1)C(=O)CN(Cc1c(F)cc(F)cc1F)S(=O)(=O)c1cc(F)c(F)c(F)c1F [Compound 12, 4-[(3,5-dicyclopropylphenyl)methyl-[2-[(2,3,4,5-tetrafluorophenyl)sulfonyl-[(2,4,6-trifluorophenyl)methyl]amino]acetyl]amino]-3-ethoxy-benzoic acid] |  | 400 to 1200
CCOc1cc(C(=O)O)c(F)cc1N(Cc1cc(C2CC2)cc(C2CC2)c1)C(=O)CN(Cc1ccccc1C#N)S(=O)(=O)c1cc(F)c(F)c(F)c1F [Compound 18, 4-[[2-[(2-cyanophenyl)methyl-(2,3,4,5-tetrafluorophenyl)sulfonyl-amino]acetyl]-[(3,5-dicyclopropylphenyl)methyl]amino]-5-ethoxy-2-fluoro-benzoic acid] | ≥ 24000 | 400 to 1200
O=C(O)c1ccc(N(Cc2cc(C3CC3)cc(C3CC3)c2)C(=O)CN(Cc2ccccc2Cl)S(=O)(=O)c2c(F)c(F)c(F)c(F)c2Cl)cc1O [Compound 76, 4-(2-((2-chloro-N-(2-chlorobenzyl)-3,4,5,6-tetrafluorophenyl)sulfonamido)-N-(3,5-dicyclopropylbenzyl)acetamido)-2-hydroxybenzoic acid] | ≥ 24000 | 1200 to 6000
CCOc1cc(C(=O)O)ccc1N(Cc1cc(C2CC2)cc(N2CCCC2)c1)C(=O)CN(Cc1ccccc1C#N)S(=O)(=O)c1cc(F)c(F)c(F)c1F [Compound 22, 4-[[2-[(2-cyanophenyl)methyl-(2,3,4,5-tetrafluorophenyl)sulfonyl-amino]acetyl]-[(3-cyclopropyl-5-pyrrolidin-1-yl-phenyl)methyl]amino]-3-ethoxy-benzoic acid] |  | 400 to 1200
CCOc1cc(C(=O)O)ccc1N(Cc1cc(C2CC2)cc(C2CC2)c1)C(=O)CNS(=O)(=O)c1cc(F)c(F)c(F)c1F [Compound 47, 4-(N-(3,5-dicyclopropylbenzyl)-2-((2,3,4,5-tetrafluorophenyl)sulfonamido)acetamido)-3-ethoxy benzoic acid] |  | > 6000
CCOc1cc(C(=O)O)ccc1N(Cc1cc(C2CC2)cc(N2CCCC2)c1)C(=O)CN(Cc1ccccc1C#N)S(=O)(=O)c1c(Br)cc(F)c(F)c1F [Compound 36, 4-[[2-[(6-bromo-2,3,4-trifluoro-phenyl)sulfonyl-[(2-cyanophenyl)methyl]amino]acetyl]-[(3-cyclopropyl-5-pyrrolidin-1-yl-phenyl)methyl]amino]-3-ethoxy-benzoic acid] | ≥ 24000 | 1200 to 6000
COc1cc(C(=O)O)ccc1N(Cc1cc(C2CC2)cc(C(C)(C)C)c1)C(=O)CN(Cc1cnccc1C(F)(F)F)S(=O)(=O)c1c(F)c(F)cc(F)c1F [Compound 46, 4-(N-(3-(tert-butyl)-5-cyclopropylbenzyl)-2-((2,3,5,6-tetrafluoro-N-((4-(trifluoromethyl)pyridin-3-yl)methyl)phenyl)sulfonamido)acetamido)-3-methoxy benzoic acid] |  | > 6000
